Source: PubChem BioAssay AID2006 (Sanford-Burnham Center for Chemical Genomics, 2009)

Each compound was assayed against SUMO-conjugating enzyme UBC9 (Homo sapiens) (UniProt P63279) (assay: blockers of SAE1/SAE2–UBC9 SUMO transfer – biochemical, HTRF, uHTS, primary screen (AID 2006)). Details: HTRF SUMOylation assay, SAE1/SAE2 + UBC9, in vitro.
Sequence of SUMO-conjugating enzyme UBC9 (Homo sapiens) (P63279 whole entry, looked up): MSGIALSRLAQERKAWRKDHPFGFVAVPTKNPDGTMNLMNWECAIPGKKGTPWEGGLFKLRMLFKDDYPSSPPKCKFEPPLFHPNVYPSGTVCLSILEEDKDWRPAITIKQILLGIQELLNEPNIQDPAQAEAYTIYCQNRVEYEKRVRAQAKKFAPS

Row | IC50 | SMILES
1 | 14 µM | O=C1NC(=Nc2ccc3ccccc3c2)S/C1=C/c1ccco1
2 | 11.1 µM | O=C(O)c1ccc(/C=N/NC(=O)c2ccc(CN3c4cccc5cccc(c45)S3(=O)=O)cc2)cc1
3 | 13.8 µM | NS(=O)(=O)c1ccc(NC(=O)c2ccc(-c3ccccc3)cc2)cc1
4 | 37.9 µM | O=C(CN1C(=O)S/C(=C\c2ccccc2)C1=O)NNC(=O)c1ccccc1O
